Tests used:
[1] = test system: Streptozotocin-induced diabetes rats; experiment: In vivo anti-hyperglycemia assay; parameters: species or system rat; conditions: streptozotocin-induced diabetic rats, single oral dose, blood glucose at 0-5 hr, various dosages
Experimental: Streptozotocin-induced diabetes rats were used for assessment of blood glucose lowering effect. Adult male Sprague Dawley rats were obtained from BioLasco, Ilan, Taiwan. The rats received an intraperitoneal injection of streptozotocin (Sigma, Cat. No. S0130, St. Louis, Mo., USA) at a concentration of 65 mg/kg every other day. The streptozotocin solution was freshly prepared in 0.01 M citrate buffer. Blood samples were collected via tail vein with a 25 G needle once a week and were tested using a blood glucometer (ACCU-CHEK® from Roche, Basel, Schweiz) for glucose level. A glucose level of higher than 450 mg/dL indicates streptozotocin-induced diabetes. The diabetic rats were divided into 3-6 groups and were orally administered with a single dose of the tested compounds, dapagliflozin (reference compound), or vehicle. Blood samples were collected via tail vein at 0 (pre-dose), 0.5, 1, 2, 3, 4, and 5 hr after the oral administration and were measured for blood glucose levels with the glucometer. A P value of less than 0.05 was considered statistically significant.

Male Sprague-Dawley rats = experiment: In vivo urine glucose excretion assay; parameters: species or system rat; conditions: single oral dose 0.1, 1, 10, and 50 mg/kg, then 50% glucose solution 2 g/kg orally, 24-hour urine collection
Experimental: Male Sprague-Dawley rats were used for glucosuria assessment. Male Sprague-Dawley rats of 8-10 weeks old were obtained from BioLasco, Ilan, Taiwan. The rats to be tested were fasted overnight and divided into 6 weight-matched groups. The rats were mildly anesthetized with a mixed gas of 30% O2 and 70% CO2 by inhalation and were orally gavaged with a single dose of the tested compounds (0.1, 1, 10, and 50 mg/kg), dapagliflozin (reference compound, 1 mg/kg), or vehicle. Each of the tested rats was subsequently dosed orally with 50% glucose solution (2 g/kg). The rats were returned to metabolism cages (ISHIHALA, Tokyo, Japan) for 24-hour urine collection and were re-fed at 1 h after the glucose challenge. Volume of the urine was measured and recorded. The urine samples were measured for glucose levels by a DRI-CHEM 3500 analyzer (FUJI, Tokyo, Japan). A P value of less than 0.05 was considered statistically significant.

SMILES | anti-hyperglycemia effect (blood glucose lowering) [1] | effect in increasing urinary glucose excretion (Male Sprague-Dawley rats)
O[C@@H]1[C@@H](O)[C@H](c2cn(Cc3ccc(C4CC4)cc3)c3c(F)cccc23)OC[C@H]1O [Compound 108] | strong anti-hyperglycemia effect | 
CCOc1ccc(Cc2cc([C@@H]3O[C@H](C=NO)[C@@H](O)[C@H](O)[C@H]3O)ccc2Cl)cc1 [Compound 70] | strong anti-hyperglycemia effect | strong effect in increasing urinary glucose excretion in a dose-dependent manner
CCOc1ccc(Cc2cc([C@@H]3O[C@H](C=NNCCO)[C@@H](O)[C@H](O)[C@H]3O)ccc2Cl)cc1 [Compound 78] | strong anti-hyperglycemia effect | strong effect in increasing urinary glucose excretion in a dose-dependent manner
CCOc1ccc(Cc2cc([C@@H]3O[C@H](CNOC)[C@@H](O)[C@H](O)[C@H]3O)ccc2Cl)cc1 [Compound 79] |  | strong effect in increasing urinary glucose excretion in a dose-dependent manner
CCOc1ccc(Cc2cc([C@@H]3O[C@H](C=NOC)[C@@H](O)[C@H](O)[C@H]3O)ccc2Cl)cc1 [Compound 71] |  | strong effect in increasing urinary glucose excretion in a dose-dependent manner
CCOc1ccc(Cc2cc([C@@H]3O[C@H](C=NNC(=O)c4ccccc4)[C@@H](O)[C@H](O)[C@H]3O)ccc2Cl)cc1 [Compound 93] | strong anti-hyperglycemia effect | strong effect in increasing urinary glucose excretion in a dose-dependent manner
CCOc1ccc(Cc2cc([C@@H]3O[C@H](C=NNC(=O)c4cccs4)[C@@H](O)[C@H](O)[C@H]3O)ccc2Cl)cc1 [Compound 81] |  | strong effect in increasing urinary glucose excretion in a dose-dependent manner
CCOc1ccc(Cc2cc([C@@H]3O[C@H](C=NNC(=O)c4ccc(Cl)s4)[C@@H](O)[C@H](O)[C@H]3O)ccc2Cl)cc1 [Compound 95] | strong anti-hyperglycemia effect | strong effect in increasing urinary glucose excretion in a dose-dependent manner
CCOc1ccc(Cc2cc([C@@H]3O[C@H](C=NNC(=S)NC)[C@@H](O)[C@H](O)[C@H]3O)ccc2Cl)cc1 [Compound 87] | strong anti-hyperglycemia effect | strong effect in increasing urinary glucose excretion in a dose-dependent manner

Source: patent US8697658B2, “Glycoside compounds” (National Health Research Institutes, priority 2011, dated 2014)
